Data on one compound can be found in patent publication US8716226B2, “3,5 phenyl-substituted beta amino acid derivatives as integrin antagonists” (Saint Louis University, priority 2012, dated 2014).

This assay has as its target T1, α5β1 (Homo sapiens, UniProt P05556+P08648).
T1 construct: K562 cells (American Type Culture Collection, Manassas, Va.) which naturally express high levels of α5β1; endogenous in cells; host or cells: K562 (human erythroleukemia, ATCC)
The assay is described as follows: K562 cell adhesion assay for α5β1 function. As to conditions: K562 cells, adhesion to human plasma fibronectin. Format: cell-based. On the procedure:
K562 Cell Adhesion Assay for α5β1 Function.
Purified human plasma fibronectin (Calbiochem/EMD Biosciences) diluted to 5 μg/ml in TS buffer (25 mM Tris 7.4, 150 mM NaCl) was added to wells (100 μl/well) of a 96-well microtiter plate (Immulon 2HB 96-well; VWR Scientific) and incubated overnight at 4° C. The solution in each well was then replaced with 200 μl of blocking buffer (TS with 1% bovine serum albumin), and the plate incubated for 1 hr at 37° C. Compounds were diluted in test tubes to 2× the peak testing concentration in cell adhesion buffer consisting of Hanks Buffered Salts Solution (HBSS, cation-free, Sigma), 0.1% bovine serum albumin, 25 mM HEPES, and 200 μM MnCl2. […] The cells were washed with the cell adhesion buffer, counted using a hemocytometer, centrifuged and resuspended in cell adhesion buffer at 3×10^6 cells/ml. […] Remaining attached cells were detected by addition of 100 μl/well p-nitrophenylphosphate (Sigma) solution (15 mg tablet dissolved in 25 ml 50 mM NaAcetate, pH 5; 0.5% Triton-X-100), incubation for 30 min at 37° C., and then addition of 50 μl/well 1N NaOH to stop the enzyme reaction. Plates were read by colorimetric detection at 405 nm wavelength using a Tecan Safire II plate reader. Concentration-response curves were constructed by non-linear regression (best fit) analysis, and IC50 values were calculated for each compound. […]

T1 sequence (P08648 42-894 limits assumed): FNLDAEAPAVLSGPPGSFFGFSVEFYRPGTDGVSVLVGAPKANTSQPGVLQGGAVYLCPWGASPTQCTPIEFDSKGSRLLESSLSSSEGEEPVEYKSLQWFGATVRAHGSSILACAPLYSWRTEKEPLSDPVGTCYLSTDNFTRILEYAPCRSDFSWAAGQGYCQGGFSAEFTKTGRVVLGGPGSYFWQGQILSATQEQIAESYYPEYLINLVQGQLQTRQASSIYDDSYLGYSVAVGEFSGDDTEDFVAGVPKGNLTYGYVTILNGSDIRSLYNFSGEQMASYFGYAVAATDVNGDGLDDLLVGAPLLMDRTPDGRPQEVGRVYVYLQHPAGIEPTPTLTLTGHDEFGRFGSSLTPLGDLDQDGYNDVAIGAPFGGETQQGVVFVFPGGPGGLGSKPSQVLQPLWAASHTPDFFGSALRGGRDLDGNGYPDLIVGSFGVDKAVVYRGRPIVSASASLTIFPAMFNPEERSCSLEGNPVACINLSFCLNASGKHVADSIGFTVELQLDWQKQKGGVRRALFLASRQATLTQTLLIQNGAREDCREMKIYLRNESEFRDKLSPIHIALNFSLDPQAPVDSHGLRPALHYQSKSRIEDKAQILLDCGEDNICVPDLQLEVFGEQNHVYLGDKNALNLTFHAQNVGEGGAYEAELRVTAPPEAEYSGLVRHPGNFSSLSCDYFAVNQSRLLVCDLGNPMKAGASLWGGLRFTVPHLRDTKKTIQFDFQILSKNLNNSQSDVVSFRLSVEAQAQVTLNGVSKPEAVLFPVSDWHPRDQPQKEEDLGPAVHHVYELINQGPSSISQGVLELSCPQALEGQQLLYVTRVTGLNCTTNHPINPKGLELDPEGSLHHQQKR
T1 sequence (P08648 895-1049 partner limits assumed): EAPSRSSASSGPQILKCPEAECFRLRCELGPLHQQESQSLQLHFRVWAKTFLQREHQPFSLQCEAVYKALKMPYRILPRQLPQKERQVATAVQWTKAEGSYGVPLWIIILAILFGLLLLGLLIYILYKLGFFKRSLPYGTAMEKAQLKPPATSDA
T1 sequence (P05556 21-798): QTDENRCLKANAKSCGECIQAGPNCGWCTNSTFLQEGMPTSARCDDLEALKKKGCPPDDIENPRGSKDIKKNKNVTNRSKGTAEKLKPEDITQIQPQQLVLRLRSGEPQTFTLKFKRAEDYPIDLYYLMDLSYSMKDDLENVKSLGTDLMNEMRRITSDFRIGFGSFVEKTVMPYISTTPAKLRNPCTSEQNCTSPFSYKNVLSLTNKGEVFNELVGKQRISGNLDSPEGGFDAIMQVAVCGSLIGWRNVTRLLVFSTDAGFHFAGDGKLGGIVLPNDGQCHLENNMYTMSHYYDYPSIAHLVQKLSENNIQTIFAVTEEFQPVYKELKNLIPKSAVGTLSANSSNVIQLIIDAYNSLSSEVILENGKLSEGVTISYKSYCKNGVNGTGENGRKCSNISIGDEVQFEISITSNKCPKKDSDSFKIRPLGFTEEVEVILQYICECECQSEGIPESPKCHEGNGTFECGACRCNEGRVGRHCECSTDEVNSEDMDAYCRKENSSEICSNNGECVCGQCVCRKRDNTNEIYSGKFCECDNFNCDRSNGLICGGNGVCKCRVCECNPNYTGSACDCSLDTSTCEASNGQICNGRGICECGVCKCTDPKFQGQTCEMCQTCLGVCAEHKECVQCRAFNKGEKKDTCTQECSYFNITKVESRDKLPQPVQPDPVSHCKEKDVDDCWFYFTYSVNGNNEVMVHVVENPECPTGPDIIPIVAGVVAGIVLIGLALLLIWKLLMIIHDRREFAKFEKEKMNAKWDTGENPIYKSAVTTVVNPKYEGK

The IC50 is the concentration that inhibits the measured activity by half. A high value points to lower potency. Consider `CC(C)(C)c1cc(Br)cc([C@H](CC(=O)O)NC(=O)CNC(=O)c2cc(O)cc(NC3=NCC(O)CN3)c2)c1` (stereo partly drawn) [Example 1, (3S)—N-[3-hydroxy-5-[(1,4,5,6-tetrahydro-5-hydroxy-2-pyrimidinyl)amino]benzoyl]glycyl-3-(3-bromo-5-tert-butylphenyl)-β-alanine], for which the IC50 worked out at 4.2 nM. This counts as single-digit nanomolar.
